Laboratory results from patent US20230310390A1, “INHIBITORS OF SHORT-CHAIN DEHYDROGENASE ACTIVITY FOR TREATING NEURODEGENERATION” (CASE WESTERN RESERVE UNIVERSITY, priority 2020, published 2023).
Read-outs that look alike come from different tables or passages of the source.

Tests used:
[1] = tested on: C57/B6 mice exposed to TBI; assay: Silver staining for axon degeneration after TBI; assay type: in vivo; settings: 3 weeks after TBI, 5 mg/kg twice daily started 24 hours after injury; 5 mg/kg
Experimental: 8 week old C57/B6 mice were exposed to sham-injury or TBI. Twice daily treatment with 5 mg/kg (+)-SW033291, 5 mg/kg (−)-SW033291, or vehicle was started 24 hours after injury and continued throughout the duration of the experiment. Animals were sacrificed by transcardial perfusion 3 weeks after TBI or sham-injury, and fixed brains were processed for silver staining. […] Individual mouse data points are shown on the graph. Data was analyzed using two-way repeated measures ANOVA; * p<0.05, ** p<0.01. All data is mean±SEM.

[2] = cited from earlier work
[3] = tested on: neurons; settings: in vitro, activation of the EP2 receptors; cited from earlier work

With `CCCC[S+]([O-])c1sc2nc(-c3cccs3)cc(-c3ccccc3)c2c1N` (single isomer, unassigned; (-)) [(−)-SW033291, reference compound] the “silver staining (axon degeneration)” value [1] was “protection was not noted”.
For `CCCCC[C@H](O)/C=C/[C@H]1[C@H](O)CC(=O)[C@@H]1C/C=C\CCCC(=O)O` [PGE2, prostaglandin E2], the half-life ([2]; following intravenous injection) is given as “less than 1 min” and the half-life ([2]; in the circulatory system) is given as “approximately 30 sec”.
In the case of `CCCC1([C@H](O)C/C=C/[C@H]2[C@H](O)CC(=O)[C@@H]2CCCCCCC(=O)OC)CCC1` [butaprost], the “protection of neurons from amyloid peptide neurotoxicity” value [3] is listed as “protected neurons from amyloid 0-peptide neurotoxicity in vitro”.
